Reference: BindingDB's records for doi:10.1021/acs.jmedchem.6b00709 (University of Berne, 2016)

Assay: Inhibition of Aurora A kinase in human HeLa Kyoto cells assessed as induction of defective chromosome alignment during metaphase incubated for 20 hrs

EC50: 6 µM
SMILES: CCc1ccc(/N=C2\S/C(=C\c3ccnc(Nc4ccc(C(=O)O)cn4)c3)C(=O)N2C)cc1
